# Reference: patent US9758485B2, “Compounds for controlling arthropods” (priority 2013, dated 2017)
# Read-outs that look alike come from different tables or passages of the source.
# Tests used:
# Boophilus microplus = Boophilus microplus - injection test; assay type: in vivo; details: application rate 20 μg/animal; injected into engorged adult female ticks; laying of fertile eggs, after 7 days
# Procedure: Boophilus microplus—Injection Test
# (§1) Solvent: dimethyl sulphoxide
# To produce an appropriate active ingredient formulation, 10 mg of active ingredient are mixed with 0.5 ml of solvent and the concentrate is diluted with solvent to the desired concentration.
# 1 μl of the active ingredient solution is injected into the abdomen of 5 engorged adult female cattle ticks (Boophilus microplus). The animals are transferred into dishes and kept in a climate-controlled room.
# Efficacy is assessed after 7 days by laying of fertile eggs. Eggs which are not visibly fertile are stored in a climate-controlled cabinet until the larvae hatch after about 42 days. An efficacy of 100% means that none of the ticks has laid any fertile eggs; 0% means that all the eggs are fertile.
# [1] = logP determination by HPLC on a reversed-phase column (C18), EEC Directive 79/831 Annex V.A8; assay type: physicochemical; details: for logP^a): HPLC-MS method a), Table I-T3
# Lucilia cuprina = Lucilia cuprina test; assay type: in vivo; details: application rate 100 ppm, L1 larvae in minced horsemeat, kill after 2 days
# Procedure: as §1
# To produce an appropriate active ingredient formulation, 10 mg of active ingredient are mixed with 0.5 ml of dimethyl sulphoxide, and the concentrate is diluted with water to the desired concentration.
# About 20 L1 larvae of the Australian sheep blowfly (Lucilia cuprina) are transferred into a test vessel containing minced horsemeat and the active ingredient preparation of the desired concentration.
# After 2 days, the kill in % is determined. 100% means that all the larvae have been killed; 0% means that none of the larvae have been killed.
# Ctenocephalides felis = Ctenocephalides felis - oral test; assay type: in vivo; details: application rate 100 ppm in citrated cattle blood; adult fleas; kill after 2 days
# Procedure: Ctenocephalides felis—Oral Test
# as §1
# For the purpose of producing an appropriate active ingredient formulation, 10 mg of active ingredient are mixed with 0.5 ml of dimethyl sulphoxide. Dilution with citrated cattle blood gives the desired concentration.
# About 20 unfed adult cat fleas (Ctenocephalides felis) are placed into a chamber which is closed at the top and bottom with gauze. A metal cylinder whose bottom end is closed with parafilm is placed onto the chamber. The cylinder contains the blood/active ingredient preparation, which can be imbibed by the fleas through the parafilm membrane.
# After 2 days, the kill in % is determined. 100% means that all of the fleas have been killed; 0% means that none of the fleas have been killed.
# [2] = HPLC-MS, reversed-phase column (C18)
# [3] = HPLC on reversed-phase column (C18)
# [4] = HPLC, reversed-phase C18, acetonitrile/water with formic acid, 55° C.
Compound,efficacy (Boophilus microplus),logP^a) [1],efficacy (Lucilia cuprina),efficacy (Ctenocephalides felis),further results
Cc1cc(C(F)(C(F)(F)F)C(F)(F)F)cc(C)c1-c1ccn(-c2ccc(Cl)c(C(=O)NC3(C#N)CC3)c2)n1 [I-T2-2],100%,–,–,–,–
Cc1cc(C(F)(C(F)(F)F)C(F)(F)F)cc(C)c1-n1cc(-c2ccc(Cl)c(C(=O)NCC(=O)NCC(F)(F)F)c2)cn1 [I-T3-6],100%,4.1,100%,–,–
Cc1cc(C(F)(C(F)(F)F)C(F)(F)F)cc(C)c1-n1cc(-c2cccc(C(=O)NC3(C#N)CC3)c2F)cn1 [I-T3-10],100%,4.2,100%,100%,–
Cc1cc(C(F)(C(F)(F)F)C(F)(F)F)cc(C)c1-n1cc(-c2cc(C(=O)NC3CC3)c(F)cc2Cl)cn1 [I-T3-11],100%,4.9,–,95%,–
Cc1cc(C(F)(C(F)(F)F)C(F)(F)F)cc(C)c1-n1cc(-c2cc(C(=O)NC3(C#N)CC3)c(F)cc2Cl)cn1 [I-T3-12],100%,4.7,80%,100%,–
Cc1cc(C(F)(C(F)(F)F)C(F)(F)F)cc(C)c1-n1cc(-c2cc(C(=O)NC3CC3)ccc2F)cn1 [I-T3-13],100%,4.5,–,80%,–
Cc1cc(C(F)(C(F)(F)F)C(F)(F)F)cc(C)c1-n1cc(-c2cc(C(=O)NC3CC3)cc(C(F)(F)F)c2)cn1 [I-T3-15],100%,4.9,100%,90%,–
Cc1ccc(C(=O)NC2CC2)cc1-c1cnn(-c2c(C)cc(C(F)(C(F)(F)F)C(F)(F)F)cc2C)c1 [I-T3-16],–,4.4,–,80%,–
Cc1cc(C(F)(C(F)(F)F)C(F)(F)F)cc(C)c1-n1cc(-c2cc(C(=O)NC3(C#N)CC3)cc(C(F)(F)F)c2)cn1 [I-T3-18],100%,4.7,100%,100%,–
Cc1cc(C(F)(C(F)(F)F)C(F)(F)F)cc(C)c1-n1cc(-c2cc(C(=O)NC3(C#N)CC3)ccc2F)cn1 [I-T3-19],100%,4.3,–,95%,–
O=C(NCC(F)(F)F)c1cc(-c2cnn(-c3ccc(C(F)(C(F)(F)F)C(F)(F)F)cc3Cl)c2)ccc1Cl [I-T3-32],100%,4.7,100%,100%,–
O=C(NCCC(F)(F)F)c1cc(-c2cnn(-c3ccc(C(F)(C(F)(F)F)C(F)(F)F)cc3Cl)c2)ccc1Cl [I-T3-33],100%,4.7,100%,100%,–
O=C(NCC(F)(F)F)c1cc(-c2cnn(-c3ccc(C(F)(C(F)(F)F)C(F)(F)F)cc3OC(F)(F)F)c2)ccc1Cl [I-T3-36],100%,5.0,100%,80%,–
O=C(NC1CSC1)c1cc(-c2cnn(-c3ccc(C(F)(C(F)(F)F)C(F)(F)F)cc3OC(F)(F)F)c2)ccc1Cl [I-T3-37],100%,4.9,100%,90%,–
CCc1cc(C(F)(C(F)(F)F)C(F)(F)F)ccc1-n1cc(-c2ccc(Cl)c(C(=O)NCC(F)(F)F)c2)cn1 [I-T3-40],100%,4.9,100%,100%,–
CCc1cc(C(F)(C(F)(F)F)C(F)(F)F)ccc1-n1cc(-c2ccc(Cl)c(C(=O)NC3CSC3)c2)cn1 [I-T3-41],100%,4.9,90%,95%,–
CCc1cc(C(F)(C(F)(F)F)C(F)(F)F)cc(C)c1-n1cc(-c2ccc(Cl)c(C(=O)NCC(F)(F)F)c2)cn1 [I-T3-45],100%,5.0,100%,95%,–
N#CC1(NC(=O)c2cc(-c3cnn(-c4c(F)cc(C(F)(F)F)cc4F)c3)ccc2Cl)CC1 [I-T3-49],100%,3.2,100%,100%,–
N#CC1(NC(=O)c2cc(-c3cnn(-c4ncc(C(F)(F)F)cc4Cl)c3)ccc2Cl)CC1 [I-T3-59],100%,3.1,100%,100%,–
O=C(NC1CC1)c1cc(-c2cnn(-c3ncc(C(F)(F)F)cc3Cl)c2)ccc1Cl [I-T3-60],100%,3.2,90%,90%,–

Compound,efficacy (Boophilus microplus),logP^a) [1],efficacy (Lucilia cuprina),efficacy (Ctenocephalides felis),further results
CCc1cc(C(F)(C(F)(F)F)C(F)(F)F)cc(C)c1-n1cc(-c2cccc(C(=O)NC3(C#N)CC3)c2F)cn1 [I-T3-69],100%,4.5,95%,100%,–
CCc1cc(C(F)(C(F)(F)F)C(F)(F)F)ccc1-n1cc(-c2cccc(C(=O)NC3(C#N)CC3)c2F)cn1 [I-T3-74],100%,4.5,90%,–,–
CCc1cc(C(F)(C(F)(F)F)C(F)(F)F)ccc1-n1cc(-c2cccc(C(=O)NC3CC3)c2F)cn1 [I-T3-75],90%,4.7,80%,–,–
"Cc1cc(C(F)(C(F)(F)F)C(F)(F)F)cc(C)c1-n1cc(-c2ncc(Cl)c(C(=O)NC3CC3)n2)cn1 [I-T3-121, 5-chloro-N-cyclopropyl-2-[1-[2,6-dimethyl-4-[1,2,2,2-tetrafluoro-1-(trifluoromethyl)ethyl]phenyl]pyrazol-4-yl]pyrimidine-4-carboxamide]",–,–,–,–,"chromatographic logP ([1]; reversed-phase HPLC column (C18), HPLC, reversed-phase C18, acetonitrile/water with formic acid, 55° C., read-out: logP): 4.5; chromatographic logP ([1]; reversed-phase HPLC column (C18), HPLC-MS method a), reversed-phase column (C18); read-out: logP^a)): 4.5; chromatographic logP ([1]; reversed-phase HPLC column (C18), HPLC-MS, reversed-phase column (C18), read-out: log P): 4.5; pest or weed control at 100 ppm (Lucilia cuprina; Lucilia cuprina, 48 h, read-out: efficacy): 80%"
O=C(NC1CC1)c1cc(-c2cnn(-c3c(Cl)cc(C(F)(C(F)(F)F)C(F)(F)F)cc3Cl)c2)cnc1N1CCCC1 [I-T3-135],–,–,–,100%,"log P [1, 2]: 4.3"
Cc1cc(C(F)(C(F)(F)F)C(F)(F)F)cc(C)c1-n1cc(-c2cnc(C3CC3)c(C(=O)N(C)C3CC3)c2)cn1 [I-T3-142],100%,–,–,–,"log P [1, 2]: 4.6"
O=C(NC1CC1)c1cc(-c2cnn(-c3c(Cl)cc(C(O)(C(F)(F)F)C(F)(F)F)cc3Cl)c2)cnc1Cl [I-T3-221],–,–,–,–,"log P [1, 3]: 3.0"
N#CC1(NC(=O)c2cc(-c3cnn(-c4c(Cl)cc(C(O)(C(F)(F)F)C(F)(F)F)cc4Cl)c3)cnc2Cl)CC1 [I-T3-222],–,–,–,–,"log P [1, 3]: 3.0"
CN(C(=O)c1cc(-c2cnn(-c3c(Cl)cc(C(O)(C(F)(F)F)C(F)(F)F)cc3Cl)c2)cnc1Cl)C1(C#N)CC1 [I-T3-223],–,–,–,–,"log P [1, 3]: 3.3"
O=C(NC1CC1)c1cc(-c2cnn(-c3c(I)cc(C(F)(C(F)(F)F)C(F)(F)F)cc3OC(F)(F)F)c2)ccc1Cl [I-T3-224],–,–,–,–,"log P [1, 3]: 4.7"
CN(C(=O)c1cc(-c2cnn(-c3c(I)cc(C(F)(C(F)(F)F)C(F)(F)F)cc3OC(F)(F)F)c2)ccc1Cl)C1CC1 [I-T3-225],–,–,–,–,"log P [1, 3]: 5.2"
N#CC1(NC(=O)c2cc(-c3cnn(-c4c(I)cc(C(F)(C(F)(F)F)C(F)(F)F)cc4OC(F)(F)F)c3)ccc2Cl)CC1 [I-T3-226],–,–,–,–,"log P [1, 3]: 4.6"
O=C(NC1CC1)c1cc(-c2cnn(-c3c(I)cc(C(F)(C(F)(F)F)C(F)(F)F)cc3C(F)(F)F)c2)ccc1Cl [I-T3-227],–,–,–,–,"log P [1, 3]: 4.5"
N#CC1(NC(=O)c2cc(-c3cnn(-c4c(I)cc(C(F)(C(F)(F)F)C(F)(F)F)cc4C(F)(F)F)c3)ccc2Cl)CC1 [I-T3-228],–,–,–,–,"log P [1, 3]: 4.4"
CN(C(=O)c1cc(-c2cnn(-c3c(I)cc(C(F)(C(F)(F)F)C(F)(F)F)cc3C(F)(F)F)c2)ccc1Cl)C1CC1 [I-T3-229],–,–,–,–,"log P [1, 3]: 5.1"
Cc1cc(C(F)(C(F)(F)F)C(F)(F)F)cc(C)c1-n1ccc(-c2ccc(Cl)c(C(=O)NC3(C#N)CC3)c2)c1 [I-T46-1],–,–,–,–,"logP [1, 4]: 4.90"
CN(C(=O)c1cc(-c2ccn(-c3c(Cl)cc(C(F)(C(F)(F)F)C(F)(F)F)cc3Cl)c2)cnc1Cl)C1CC1 [I-T46-3],–,–,–,–,"logP [1, 4]: 5.0"
O=C(NC1CC1)c1cc(-c2ccn(-c3c(Cl)cc(C(F)(C(F)(F)F)C(F)(F)F)cc3Cl)c2)cnc1Cl [I-T46-4],–,–,–,–,"logP [1, 4]: 4.5"
N#CC1(NC(=O)c2cc(-c3ccn(-c4c(Cl)cc(C(F)(C(F)(F)F)C(F)(F)F)cc4Cl)c3)cnc2Cl)CC1 [I-T46-5],–,–,–,–,"logP [1, 4]: 4.4"
CN(C(=O)c1cc(-c2ccn(-c3c(Cl)cc(C(F)(C(F)(F)F)C(F)(F)F)cc3Cl)c2)cnc1Cl)C1(C#N)CC1 [I-T46-6],–,–,–,–,"logP [1, 4]: 4.8"
